Measured values published in patent US20050261292A1, “Pharmaceutical composition containing N-sulfamoyl-N'-arylpiperazines for the treatment or inhibition of obesity and related conditions” (Solvay Pharmaceuticals GmbH, priority 2004, published 2005).
Where a name gives a salt, the structure may show the parent alone.

Key:
[1] = target: T1, human carbonic anhydrase isoenzyme II (hCA II) (Homo sapiens, UniProt P00918); test: In vitro inhibition of human carbonic anhydrase isoenzyme II (hCA II), dansylamide fluorescence; format: biochemical; settings: hCA II from erythrocytes 10^-7 M, 60 min, single measurements, read-out: hCA II inhibiting effect in vitro, IC50
T1 construct: human carbonic anhydrase isoenzyme II from erythrocytes (Sigma-Aldrich); purchased Sigma-Aldrich; host or cells: human erythrocytes (natural source)
Protocol: 1. In vitro Inhibition of Human Carbonic Anhydrase Isoenzyme II (hCA II)
The test compounds of Formula I in 96 well microplates were diluted with aqua bidest by using an automatic pipettor (CyBiWell®). From the different dilution plates, aliquots of 20 μl were transferred to the 96 well black assay plates with a pipetting station (Tecan Genesis®). In a second step, 148 μl of potassium phosphate buffer (20 mM, pH 7.4) was added, and as a third step, 20 μl of enzyme solution (1 μM human carbonic anhydrase isoenzyme II from erythrocytes (Sigma-Aldrich), dissolved in potassium phosphate buffer) incubated for 60 min at room temperature and the fluorescence signal (Tecan Ultra® fluorescence reader; excitation wavelength: 280 nm; emission wavelength: 465 nm) read at the end of the preincubation period (FLU-1). After the preincubation time, 20 μl of aqueous dansylamide solution (1 mM dansylamide (Sigma-Aldrich), dissolved in hydrochloric acid) were added and the fluorescence signal read every 10 min for a period of 60 min at 37° C. For calculation, the fluorescence data of the time point 60 min (FLU-2) were used. The total volume of assay mixture amounted to 208 μl. The final concentration of carbonic anhydrase II was 10^−7 M/L, of dansylamide 2.25×10^−6 and of compounds from 10^−8 M/L up to 10^−5 M/L. Final concentration of DMSO as compound solvent was […]. Each microplate also contained blanks without compound and enzyme, controls without compound and ethoxzolamide (final concentration 5×10^−8 M/L). All data reflect single measurements. Data were expressed as % inhibition after calculation by the formula: % inhibition=100((1−(FLU−2cpd−FLU−2blank−FLU−1cpd+FLU−1blank)/(FLU−2control−FLU−2blank−FLU−1control−FLU−1blank))
The % inhibition data for each compound and the respective final concentrations were used for IC50 calculations by using the Prism 4 software. Concentration action figures were calculated by applying the Prism algorithm for nonlinear regression (curve-fit): sigmoidal dose response with variable slope and the constraints: top: 100 and bottom 0.

male fatty Zucker rats = test: In vivo oral glucose tolerance test in the rat; settings: 100 mg/kg/day oral gavage; for Glucose Baseline / Insulin Baseline: 0 min sample before glucose challenge; for Insulin Baseline / Insulin AUC / Insulin Maximal effect: plasma; for Glucose Maximal effect / Glucose AUC / Insulin AUC / Insulin Maximal effect: oral glucose challenge 1.25 g/kg; for Glucose AUC / Insulin AUC: 0-120 min
Protocol: 2. In vivo Oral Glucose Tolerance Test in the Rat
The studies were carried out in individually housed male fatty Zucker rats (n=10 per group) weighing ca. 250-500 g. The rats were kept on a normal 12/12 h light/dark cycle (lights on 07.00) and they were allowed food (lab chow) and water ad libitum except for during experiments, when they were fasted overnight before the glucose challenge.
The test substances of Formula I were suspended in 2% polyethylenglycol (=PEG) 1% carboxymethylcellulose and administered by oral gavage at a dose of 100 mg/kg/day; ⅓ of the dose (1 ml/kg, 33 mg/ml) was administered at 08.30-09.30 h; the remaining […] (2 ml/kg; 33 mg/ml) was administered between 16.00-17.00 h and the last ⅓ dose was given the following morning. Control animals received only the vehicle. On the day of the test, 45 min after the final dose of test substance/vehicle a blood sample (0 min) was taken (tail vein) immediately after which the rats received an oral glucose challenge (1.25 g/kg; 118 mg/ml). Further blood samples were taken at 30, 60, 90, 120 min after the glucose challenge. The second drop of blood of each sample was placed on a glucose test strip before this was placed in the glucose meter for determination of blood glucose level (Life Scan One Touch Ultra Blood® Glucose Meter and Life Scan One Touch Ultra® Test Strips; Life Scan Inc.; Milpitas, Calif. 95035). The remaining blood of each sample was spun and the plasma was frozen at −80° C. before analysis for insulin (1-2-3 Rat Insulin ELISA kit, Alpco Diagnostics).
The values obtained were plotted and the AUC for test compounds and vehicle (for glucose and insulin) were determined after which the percent control AUC, percent control maximum value and % control baseline were estimated, to determine the influence of the test compound on the glucose tolerance.

male C57Bl/6 mice = test: Acute in vivo food intake test in mice; settings: high caloric diet, 100 mg/kg/day oral gavage in two halves
Protocol: 3. Acute in vivo Food Intake Test in Mice
The studies were carried out in individually housed male C57Bl/6 mice (n=8 per group). The mice were kept on an inverted 12/12 h light/dark cycle (lights on 22:00). They were allowed food (high caloric diet) and water ad libitum. Food intake and water consumption was measured daily. The test compound of Formula I was suspended in 1% methylcellulose in water and 2% (v/v) of Poloxamer 188 (Lutrol F68®) and administered by oral gavage at a dose of 100 mg/kg/day.
In the test model described above, the test substances caused a decrease of the animals' 24 h food intake to the percentages of food intake when compared to control as given in table 3 below.

NS(=O)(=O)N1CCN(c2ccncc2)CC1 (as salt: HCl) [Example 6, 4-pyridin-4-yl-piperazine-1-sulfonic acid amide]
melting point: 243 °C

Cc1cccc(N2CCN(S(N)(=O)=O)CC2)c1C (as salt: HCl) [Example 8]
melting point: 202 °C

NS(=O)(=O)N1CCN(c2ccc(F)cc2)CC1 (as salt: HCl) [Example 9, 4-(4-fluoro-phenyl)-piperazine-1-sulfonic acid amide]
melting point: 125 °C

Cc1ccc(Cl)cc1N1CCN(S(N)(=O)=O)CC1 (as salt: HCl) [Example 11]
melting point: 190 °C

NS(=O)(=O)N1CCN(c2ccc(Cl)c(C(F)(F)F)c2)CC1 (as salt: HCl) [Example 12, 4-(4-chloro-3-trifluoromethyl-phenyl)-piperazine-1-sulfonic acid amide]
melting point: 180 °C

N#Cc1cccnc1N1CCN(S(N)(=O)=O)CC1 (as salt: HCl) [Example 13]
melting point: 190 °C

NS(=O)(=O)N1CCN(c2ncc(C(F)(F)F)cc2Cl)CC1 (as salt: HCl) [Example 14, 4-(3-chloro-5-trifluoromethyl-pyridin-2-yl)-piperazine-1-sulfonic acid amide]
melting point: 159 °C

CC(=O)c1ccc(N2CCN(S(N)(=O)=O)CC2)cc1 (as salt: HCl) [Example 15]
melting point: 156 °C

NS(=O)(=O)N1CCN(c2c(Cl)cncc2Cl)CC1 (as salt: HCl) [Example 16]
melting point: 206 °C

NS(=O)(=O)N1CCN(c2cc(C(F)(F)F)nc3ccccc23)CC1 (as salt: HCl) [Example 17]
melting point: 191 °C

NS(=O)(=O)N1CCN(c2nccc(C(F)(F)F)n2)CC1 (as salt: HCl) [Example 18]
melting point: 156 °C

NS(=O)(=O)N1CCN(c2ccc(C(F)(F)F)cn2)CC1 (as salt: HCl) [Example 19]
melting point: 169 °C

NS(=O)(=O)N1CCN(c2ccc(C(F)(F)F)cc2[N+](=O)[O-])CC1 (as salt: HCl) [Example 20]
melting point: 134 °C

CS(=O)(=O)c1ccc(N2CCN(S(N)(=O)=O)CC2)c(F)c1 (as salt: HCl) [Example 21]
melting point: 184 °C

COc1ccccc1N1CCN(S(N)(=O)=O)CC1 [Example 3, 4-(2-Methoxy-phenyl)-piperazine-1-sulfonic acid amide hydrochloride]
IC50 [1]: 7800 nM

NS(=O)(=O)N1CCN(c2ccccn2)CC1 [Example 4, 4-Pyridin-2-yl-piperazine-1-sulfonic acid amide]
IC50 [1]: 3700 nM

NS(=O)(=O)N1CCN(c2ccncc2)CC1 [Example 6, 4-pyridin-4-yl-piperazine-1-sulfonic acid amide]
Glucose Baseline (male fatty Zucker rats): 91 % of control | Insulin Baseline (male fatty Zucker rats): 109 % of control | Glucose Maximal effect (male fatty Zucker rats): 84 % of control | Glucose AUC (male fatty Zucker rats): 89 % of control | Insulin AUC (male fatty Zucker rats): 104 % of control | Insulin Maximal effect (male fatty Zucker rats): 123 % of control

NS(=O)(=O)N1CCN(c2ncccn2)CC1 [Example 7, 4-pyrimidin-2-yl-piperazine-1-sulfonic acid amide]
24 h food intake (male C57Bl/6 mice): 78 % of control | IC50 [1]: 1800 nM

Cc1cccc(N2CCN(S(N)(=O)=O)CC2)c1C [Example 8]
IC50 [1]: 1700 nM

NS(=O)(=O)N1CCN(c2ccc(F)cc2)CC1 [Example 9, 4-(4-fluoro-phenyl)-piperazine-1-sulfonic acid amide]
IC50 [1]: 7300 nM

NS(=O)(=O)N1CCN(c2cccc(Cl)c2)CC1 [Example 10]
IC50 [1]: 4000 nM

Cc1ccc(Cl)cc1N1CCN(S(N)(=O)=O)CC1 [Example 11]
IC50 [1]: 500 nM

NS(=O)(=O)N1CCN(c2ccc(Cl)c(C(F)(F)F)c2)CC1 [Example 12, 4-(4-chloro-3-trifluoromethyl-phenyl)-piperazine-1-sulfonic acid amide]
24 h food intake (male C57Bl/6 mice): 53 % of control | IC50 [1]: 1200 nM

N#Cc1cccnc1N1CCN(S(N)(=O)=O)CC1 [Example 13]
IC50 [1]: 900 nM

NS(=O)(=O)N1CCN(c2ncc(C(F)(F)F)cc2Cl)CC1 [Example 14, 4-(3-chloro-5-trifluoromethyl-pyridin-2-yl)-piperazine-1-sulfonic acid amide]
IC50 [1]: 200 nM | Glucose Baseline (male fatty Zucker rats): 88 % of control | Insulin Baseline (male fatty Zucker rats): 97 % of control | Glucose Maximal effect (male fatty Zucker rats): 94 % of control | Glucose AUC (male fatty Zucker rats): 102 % of control | Insulin AUC (male fatty Zucker rats): 107 % of control | Insulin Maximal effect (male fatty Zucker rats): 92 % of control

CC(=O)c1ccc(N2CCN(S(N)(=O)=O)CC2)cc1 [Example 15]
24 h food intake (male C57Bl/6 mice): 79 % of control | IC50 [1]: 400 nM

NS(=O)(=O)N1CCN(c2c(Cl)cncc2Cl)CC1 [Example 16]
IC50 [1]: 300 nM

NS(=O)(=O)N1CCN(c2cc(C(F)(F)F)nc3ccccc23)CC1 [Example 17]
IC50 [1]: 1900 nM

NS(=O)(=O)N1CCN(c2nccc(C(F)(F)F)n2)CC1 [Example 18]
IC50 [1]: 1600 nM

NS(=O)(=O)N1CCN(c2ccc(C(F)(F)F)cn2)CC1 [Example 19]
IC50 [1]: 80 nM

NS(=O)(=O)N1CCN(c2ccc(C(F)(F)F)cc2[N+](=O)[O-])CC1 [Example 20]
IC50 [1]: 300 nM

CS(=O)(=O)c1ccc(N2CCN(S(N)(=O)=O)CC2)c(F)c1 [Example 21]
24 h food intake (male C57Bl/6 mice): 76 % of control | IC50 [1]: 200 nM
